What was measured:
[1] = biological target: T1, adrenergic, beta-2 (human) (Homo sapiens, UniProt P07550); assay: adrenergic, beta-2 (human) binding assay; HL-60 cells, isoproterenol, EIA read-out; assay type: cell-based; settings: 100 nM isoproterenol, 20 minutes at room temperature
T1 construct: endogenous in cells; host or cells: HL-60 (human promyelocytic leukemia cells)
Experimental: With respect to beta-2 adrenergic activity, for example, human promyelocytic leukemia cells (HL-60 cells) can be washed and added to physiological buffer. […] Thereafter, 100 nM (final) isoproterenol is added. After twenty minutes at room temperature, cells are centrifuged, buffer removed, and 0.1M HCl is added to stop reaction. […] Pharmacol. 27(1):33-54.
Briefly, human promyelocytic leukemia cells (HL-60 cells) were washed and physiological buffer was added before analysis. To this was added 300 μM IBMX to inhibit phosphodiesterase. […] Cells were then centrifuged, buffer removed and 0.1 M HCL was added to stop the reaction.

[2] = biological target: T2, adrenergic, beta-1 (human) (Homo sapiens, UniProt P08588); assay: adrenergic, beta-1 (human) binding assay; human recombinant Sf9 cells, membranes, Europium time-resolved fluorescence; assay type: biochemical; settings: Table 2, 30 nM isoproterenol
T2 construct: expressed in transfected cells; host or cells: Sf9 insect cells (membranes)
T2 sequence (P08588 whole entry): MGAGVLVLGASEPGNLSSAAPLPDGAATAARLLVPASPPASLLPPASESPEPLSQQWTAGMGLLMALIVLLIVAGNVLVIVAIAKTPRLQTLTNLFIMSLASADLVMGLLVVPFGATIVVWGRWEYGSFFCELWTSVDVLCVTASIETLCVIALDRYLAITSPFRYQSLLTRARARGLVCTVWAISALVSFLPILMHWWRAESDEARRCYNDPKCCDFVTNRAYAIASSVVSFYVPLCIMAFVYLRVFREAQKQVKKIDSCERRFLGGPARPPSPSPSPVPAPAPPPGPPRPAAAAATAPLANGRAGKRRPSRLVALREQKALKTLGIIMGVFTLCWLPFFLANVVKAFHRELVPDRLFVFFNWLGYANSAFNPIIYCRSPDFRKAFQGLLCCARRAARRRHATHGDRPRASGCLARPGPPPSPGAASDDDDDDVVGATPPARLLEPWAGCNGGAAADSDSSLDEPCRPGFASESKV
Experimental: The compound of interest is added to the membrane and then incubated for ten minutes. Thereafter, 100 nM GTP-Eu is added and incubated for an additional thirty minutes. Europium fluorescence is measured in a time-resolved fluorometer in order to ascertain any functional antagonist activity at the adrenergic beta 1 site. […] Briefly, Human recombinant Sf9 cells were used, wherein reactions were carried out in 50 mM HEPES [pH 7.4] containing 3 mM MgCl2, 0.1 μM GDP, 10 μm/mL Saoonin, and 1 mM DTT (dithiothreitol). The compound of interest was added to the membrane and then incubated for ten minutes at room temperature. Then, 30 nM of isoproterenol [final] to each well was added and allowed to incubate for an additional 30 minutes. Europium fluorescence was measured in a time-resolved fluorometer in order to ascertain any functional antagonist activity at the adrenergic beta-1 site. […] Briefly, Human recombinant Sf9 cells were used, wherein reactions were carried out in 50 mM HEPES [pH 7.4] containing 3 mM MgCl2, 0.1 μM GDP, 10 μm/mL Saoonin, and 1 mM DTT (dithiothreitol). The compound of interest was added to the membrane and then incubated for ten minutes at room temperature. Then, 30 nM of isoproterenol [final] to each well was added and allowed to incubate for an additional 30 minutes. Europium fluorescence was measured in a time-resolved fluorometer in order to ascertain any functional antagonist activity at the adrenergic beta-1 site.

T1 sequence (P07550 whole entry): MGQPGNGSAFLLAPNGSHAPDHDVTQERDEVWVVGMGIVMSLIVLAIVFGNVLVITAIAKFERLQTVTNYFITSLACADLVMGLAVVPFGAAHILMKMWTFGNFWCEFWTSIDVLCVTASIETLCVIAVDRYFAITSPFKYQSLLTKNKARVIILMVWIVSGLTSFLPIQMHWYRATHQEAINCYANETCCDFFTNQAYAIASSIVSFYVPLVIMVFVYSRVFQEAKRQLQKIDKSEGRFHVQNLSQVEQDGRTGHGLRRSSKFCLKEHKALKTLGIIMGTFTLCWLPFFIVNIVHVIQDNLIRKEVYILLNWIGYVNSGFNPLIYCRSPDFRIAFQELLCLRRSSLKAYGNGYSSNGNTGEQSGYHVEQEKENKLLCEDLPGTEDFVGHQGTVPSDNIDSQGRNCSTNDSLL

IC50 ([1]; Table 1, 300 μM IBMX) [nM] | IC50 [2] [µM] | IC50 ([1]; Table 3, 300 μM IBMX) [nM] | Structure (SMILES)
112 | 1.79 | – | COCCOCCOCCO[C@@H](CNC(C)C)COc1cccc2ccccc12 [Propranolol Conjugate A]
13200 | 3.81 | – | COCCOCCOCCOCC(=O)O[C@H](COc1cccc2ccccc12)CN(C(=O)COCCOCCOCCOC)C(C)C [Propranolol Conjugate B]
339 | 4.96 | – | COCCOCCOCCOCCOCCO[C@@H](CNC(C)C)COc1cccc2ccccc12 [Propranolol Conjugate C]
378 | – | – | COCCOCCOCCOCCOCCOCCOCCO[C@@H](CNC(C)C)COc1cccc2ccccc12 [Propranolol Conjugate D]
1680 | – | – | COCCOCCOCCOCCOCCOCCOCCOCC(=O)O[C@@H](CNC(C)C)COc1cccc2ccccc12 [Propranolol Conjugate E]
1660 | 5.39 | – | COCCOCCOCCOCC(=O)O[C@@H](CNC(C)C)COc1cccc2ccccc12 [Propranolol Conjugate F]
– | – | 1290 | COCCOCCOCCOCCOCCOC(CNC(C)(C)C)COc1nsnc1N1CCOCC1 (stereo not shown) [Timolol Compound B]
– | – | 603 | COCCOCCOCCOCCOCCOCCOCCOC(CNC(C)(C)C)COc1nsnc1N1CCOCC1 (stereo not shown) [Timolol Compound C]
– | – | 629 | COCCOCCOCCOCCOCCOCCOCCOCCOC(CNC(C)(C)C)COc1nsnc1N1CCOCC1 (stereo not shown) [Timolol Compound D]
